Reference: BindingDB's records for patent US11834453 (Array Biopharma, 2023)

Molecular target: Receptor tyrosine-protein kinase erbB-2 (Homo sapiens, UniProt P04626)
Assay: ErbB Enzyme Assay
Description: The kinases were incubated with 250 nM TK-substrate biotin (CisBio, part of cat #62TK0PEC) at 1 mM ATP along with test compounds in a buffer consisting of 25 mM HEPES, pH 7.4, 10 mM MgCl2, 0.01% Triton X-100, and 2% DMSO in a volume of 8 uL. Compounds were prepared as a three-fold serial dilution in DMSO and added to the assay to give the appropriate final concentration. After 30-minute incubation at 22 C., the reaction was quenched by adding 8 uL of quench solution containing 62.5 nM Sa-XL665 and 0.25x TK-Ab-Cryptate in HTRF detection buffer (all from CisBio, part of cat #62TK0PEC). After a 1-hour incubation at 22 C., the extent of reaction was determined using a PerkinElmer EnVision multimode plate reader via HTRF dual wavelength detection, and the percent of control (POC) was calculated using a ratiometric emission factor.

Chain of Receptor tyrosine-protein kinase erbB-2 (P04626 whole entry): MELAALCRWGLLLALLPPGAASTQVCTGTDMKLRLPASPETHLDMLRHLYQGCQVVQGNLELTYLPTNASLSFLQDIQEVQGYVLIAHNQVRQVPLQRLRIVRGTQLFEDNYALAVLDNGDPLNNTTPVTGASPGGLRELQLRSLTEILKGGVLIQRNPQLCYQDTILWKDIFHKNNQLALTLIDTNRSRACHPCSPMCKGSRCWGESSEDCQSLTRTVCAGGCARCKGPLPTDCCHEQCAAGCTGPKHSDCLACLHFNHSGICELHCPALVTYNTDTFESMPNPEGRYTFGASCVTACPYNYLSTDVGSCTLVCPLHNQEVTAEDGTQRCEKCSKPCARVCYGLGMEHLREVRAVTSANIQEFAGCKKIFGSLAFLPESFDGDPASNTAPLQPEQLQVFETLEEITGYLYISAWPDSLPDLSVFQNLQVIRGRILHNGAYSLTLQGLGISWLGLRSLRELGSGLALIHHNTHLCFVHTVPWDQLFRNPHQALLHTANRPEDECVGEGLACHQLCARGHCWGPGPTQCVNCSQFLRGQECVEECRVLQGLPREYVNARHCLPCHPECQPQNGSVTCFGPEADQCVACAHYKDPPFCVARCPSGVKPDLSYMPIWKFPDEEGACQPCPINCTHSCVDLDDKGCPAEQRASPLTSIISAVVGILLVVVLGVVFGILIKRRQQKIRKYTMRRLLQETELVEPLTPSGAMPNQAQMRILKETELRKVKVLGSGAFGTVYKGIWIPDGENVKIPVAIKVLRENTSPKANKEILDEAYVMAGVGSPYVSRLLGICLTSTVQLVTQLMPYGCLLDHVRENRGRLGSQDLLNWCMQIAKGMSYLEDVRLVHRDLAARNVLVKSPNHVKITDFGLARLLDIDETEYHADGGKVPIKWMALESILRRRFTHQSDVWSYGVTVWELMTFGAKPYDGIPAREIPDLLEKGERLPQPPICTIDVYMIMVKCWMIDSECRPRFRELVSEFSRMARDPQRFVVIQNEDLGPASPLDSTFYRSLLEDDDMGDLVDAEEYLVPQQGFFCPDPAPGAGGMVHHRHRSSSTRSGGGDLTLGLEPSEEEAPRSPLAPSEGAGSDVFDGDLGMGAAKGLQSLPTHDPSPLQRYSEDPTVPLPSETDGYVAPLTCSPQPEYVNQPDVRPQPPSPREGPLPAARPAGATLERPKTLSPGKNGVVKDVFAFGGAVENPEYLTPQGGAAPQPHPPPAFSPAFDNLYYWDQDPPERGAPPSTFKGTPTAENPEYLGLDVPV

| Structure (SMILES) | IC50 [nM] |
| --- | --- |
| CCOc1ncc2ncnc(Nc3ccc(Oc4ccc5c(c4)ncn5C)c(C)c3)c2n1 [US11834453, Example 13] | 121 |
| Cc1cc(Nc2ncnc3cnc(N4CC5C6CCC(O6)C5C4)nc23)ccc1Oc1ccc2c(c1)ncn2C (stereo not drawn) [US11834453, Example 16] | 60.6 |
| Cc1cc(Nc2ncnc3cnc(N4C[C@H]5CC[C@@H]4CO5)nc23)ccc1Oc1ccn2ncnc2c1 [US11834453, Example 127] | 114 |
| Cc1cc(Nc2ncnc3cnc(N4CCCO4)nc23)ccc1Oc1ccc2c(c1)ncn2C [US11834453, Example 178] | 67.1 |
| Cc1cc(Nc2ncnc3cnc(N4CC(C)(O)CO4)nc23)ccc1Oc1ccc2c(c1)ncn2C (stereo not drawn) [US11834453, Example 191] | 171 |

Now from value to molecule:

| IC50 [nM] | Structure (SMILES) |
| --- | --- |
| 32.2 | Cc1cc(Nc2ncnc3cnc(N(C)C[C@@H](C)O)nc23)ccc1Oc1ccc2c(c1)ncn2C [US11834453, Example 189] |
| 37.5 | Cc1cc(Nc2ncnc3cnc(N(C)C[C@H](C)O)nc23)ccc1Oc1ccc2c(c1)ncn2C [US11834453, Example 195] |
| 25.6 | Cc1cc(Nc2ncnc3cnc(N(C)CCO)nc23)ccc1Oc1ccc2c(c1)ncn2C [US11834453, Example 208] |
